Assay results from patent US20150265642A1, “NAD BIOSYNTHESIS AND PRECURSORS IN THE PREVENTION AND TREATMENT OF INFLAMMATION” (PRESIDENT AND FELLOWS OF HARVARD COLLEGE, priority 2013, published 2015).
Entries after “also recorded” stand apart in the source; their conditions may differ.

Assays:
[1] = tested on: NAD+ levels; test: NAD+ measurement in skeletal muscle of NMN-treated mice; format: in vivo, C57BL/6J mice; conditions: for levels of cellular NAD+: young and old
Procedure: (§1) C57BL/6J mice of 3, 6, 22, 24, or 30 months of age were obtained from the National Institutes of Aging mouse aging colony. Mice were acclimated for at least one-week prior to sacrifice. 3, and 24-month-old mice were given interperitoneal (IP) injections of 500 mg NMN/kg body weight per day or the equivalent volume of PBS for 7 consecutive days at 5:00 pm and 7:00 am on day 8 and sacrificed 4 hr after last injection. All animal studies followed the guidelines of and were approved by the Harvard Institutional Animal Care and Use Committee
NAD^+ from C2C12 cells and skeletal muscle was quantified with a commercially available kit (BioVision) according to the manufacturer's instructions and as described before (Gomes et al., Biochim. Biophys. Acta. 1822:185-195 (2012)).
(§2) C57BL/6J mice of 6, 22, or 30 months of age were obtained from the National Institutes of Aging mouse aging colony. Additionally 22 months old caloric restricted mice were also obtained from the National Institutes of Aging mouse aging colony. EGLN1 KO, SIRT1 KO and SIRT1 OE mice were generated as previously described (Minamishima et al., 2008; Price et al., 2012). Mice were acclimated for at least one-week prior to sacrifice. 3, 6, 22 and 24-month-old mice were given interperitoneal (IP) injections of 500 mg NMN/kg body weight per day or the equivalent volume of PBS for 7 consecutive days at 5:00 pm and 7:00 am on day 8 and sacrificed 4 hr after last injection.
NAD^+ from skeletal muscle was quantified with a commercially available kit (BioVision) according to the manufacturer's instructions and as described before (Gomes et al., 2012).
C57BL/6J mice of 3, 6, 22, or 24 months of age were obtained from the National Institutes of Aging mouse aging colony. Mice were acclimated for at least one-week prior to sacrifice. […]
NAD^+ from C2C12 cells and skeletal muscle was quantified with a commercially available kit (BioVision) according to the manufacturer's instructions and as described before (Gomes et al., 2012).

[2] = Lactate levels in skeletal muscle of NMN-treated mice; format: in vivo; conditions: 22-month-old mice; NMN one week
Description: as §2

[3] = tested on: AKT and IRS-1; test: Insulin signaling (phosphorylation of AKT and IRS-1) in skeletal muscle; format: in vivo; conditions: soleus of old mice treated with NMN
Description: as §2
Protein extracts from tissue or C2C12 cells were obtained by lysis in ice-cold lysis buffer (150 mM NaCl, 10 mM Tris HCl (pH 7.4), 1 mM EDTA, 1 mM EGTA, 1% Triton X-100, 0.5% NP-40) supplemented with a cocktail of protease and phosphatase inhibitors (Roche). Protein content was determined by the Bradford protein assay (Biorad), and 50 μg proteins were run on SDS-PAGE under reducing conditions. The separated proteins were then electrophoretically transferred to a polyvinylidene difluoride membrane (Perkin-Elmer). […] The immunostaining was detected using horseradish peroxidase-conjugated anti-rabbit or anti-mouse immunoglobulin for 1 h at room temperature.

[4] = tested on: inflammation related markers (TNFa, IL-6, IL-18); test: qPCR of inflammation related markers in gastrocnemius; format: in vivo, C57BL/6J mice; conditions: 22-month-old mice, NMN IP 500 mg/kg/day, 7 days, 500 mg/kg/day
Procedure: as §1, with “6, 22, or 24” for “6, 22, 24, or 30”, “22, or 24 months of” for “24, or 30 months of”, “sacrifice. 3, 6, 22 and 24-month-old” for “sacrifice. 3, and 24-month-old”
C57BL/6J mice of 6 months of age were given interperitoneal (IP) injections of 300 mg DMOG/kg body weight per day or the equivalent volume of PBS for 5 consecutive days. All animal studies followed the guidelines of and were approved by the Harvard Institutional Animal Care and Use Committee
(§3) RNA from skeletal muscle and aorta were extracted with RNeasy mini kit (Qiagen) according to the instructions and quantified using the NanoDrop 1000 spectrophotometer (Thermo Scientific). cDNA was synthesized with the iSCRIP cDNA synthesis kit (BioRad) using 600 ng of RNA. Quantitative RT-PCR reactions were performed using 1 μM of primers and LightCycler® 480 SYBR Green Master (Roche) on an LightCycler® 480 detection system (Roche). Calculations were performed by a comparative method (2-ΔCT) using 18S as an internal control. […]

[5] = tested on: primary myoblasts; test: qPCR of mitochondrial-encoded genes in primary myoblasts with NMNAT1 knockdown; format: cell-based, mice; conditions: knockdown of NMNAT1, NMN
Procedure: Primary myoblasts cells were isolated from WT, SIRT1 KO (Price et al., 2012) and PGC-1α/β KO (Zechner et al., 2010) mice as previously described (Price et al., 2012). WT and PGC-1α/β KO primary myoblasts were plated and allowed to differentiate into myotubes by replacing the media with low glucose DMEM supplemented with 2% horse serum (Sigma-Aldrich) for 4 days. After the differentiation the cells were infected with empty vector or flag-SIRT1 adenovirus as described before (Gerhart-Hines et al., 2007). Media was replaced with fresh DMEM supplemented with 2% horse serum (Sigma-Aldrich) for an additional 48 hr and, after that the cells were harvested for the different assays as described. […]
as §3, with “muscle tissue” for “muscle”, “C2C12 cells” for “aorta”, “(Roche).” for “(Roche). Calculations were performed by a comparative method (2-ΔCT) using 18S as an internal control.”

In the case of `NC(=O)c1ccc[n+]([C@@H]2O[C@H](COP(=O)([O-])O)[C@@H](O)[C@H]2O)c1` [NMN, nicotinamide mononucleotide], the “levels of cellular NAD+” value ([1]; 3- and 24-month-old C57BL/6J mice, NMN 500 mg/kg IP, one week, treated vs untreated) is reported as “approximately 2 fold”, the “levels of cellular NAD+” value ([1]; 6- and 22-month-old C57BL/6J mice, NMN one week) is reported as 2 fold and the “NAD+ levels in the skeletal muscle of old mice” value ([1]; gastrocnemius, 3- and 24-month-old C57BL6J mice, NMN IP 500 mg/kg/day, 7 days, colorimetric NAD+ assay) is reported as “increases NAD+ levels”. For the same compound, the “lactate levels in the skeletal muscle” value [2] was “suppressed the increase in lactate levels”, the “insulin signaling (phosphorylation of AKT and IRS-1)” value [3] was “restore insulin signaling” and the “expression of inflammation markers (TNFa, IL-6, IL-18) in the skeletal muscle” value [4] was “completely reversed; also recorded: reverses age-related increase in inflammatory markers in the skeletal muscle”. The “expression of mitochondrial-encoded genes” value [5] was “completely abolishes the ability of NMN to induce the expression of mitochondrial-encoded genes”.
